Laboratory results: US20080260850A1, “Delivery System For Bioactive Agents on the Basis of a Polymeric Drug Carrier Comprising an Amphiphilic Block Polymer and a Polylacticacid Derivative” (SAMYANG CORPORATION, priority 2004, published 2008)

Experiments:
[1] = system: MES-SA (doxorubicin-sensitive cell line); assay: Intracellular uptake, flow cytometry (FACS); assay type: cell-based, human; details: 1.0 μg/ml
Procedure: (§1) The flow cytometry study was performed with the FACStarPlus (Becton Dickinson) according to the method of Walker et al. (Experimental Cell Research 207: 142 (1993)). Briefly, cells (1.0×10^6) were incubated in McCoy's 5A medium (Invitrogen Corp.) supplemented with 10% fetal bovine serum and 1% penicillin streptomycin. After a 24-hour incubation period, the cells were treated with the drug composition at a dose of 1.0 μg/ml.

[2] = system: MES-SA/Dx-5 (doxorubicin-resistant cell line); assay: Intracellular uptake, flow cytometry (FACS); assay type: cell-based, human; details: MES-SA/Dx-5, 1.0 μg/ml
Procedure: as §1

[3] = system: MES-SA (doxorubicin-sensitive cell line); assay: In vitro cytotoxicity, MTT assay; assay type: cell-based
Procedure: (§2) MTT assay is well established method for cytotoxicity test. When the cells are treated with MTT (methylthiazoletetrazolium), the MTT-formazan is produced from reduction of MTT-tetrazolium by enzymes present in living cells only (dead cells cannot reduce the MTT-tetrazolium to MTT-formazan). The fluorescence of the MTT-formazan is detected by a fluorescence reader and the optical density correlates with the number of cells.
(§3) The cytotoxic activity of each composition was evaluated in both human tumor cell lines at five ten-fold dilutions ranging from 0.01 to 100 μg/ml. […] The MTT-formazan produced from reduction of MTT-tetrazolium by enzymes present in the living cells was detected by a fluorescence reader. The optical density correlates with the number of cells. […] The MTT assay was performed essentially according to the method of Carmichael et al. (Cancer Research 47: 936 (1987)). Briefly, cells were harvested from an exponential phase culture growing in McCoy's 5A medium (Invitrogen Corp.) supplemented with 10% fetal bovine serum and 1% penicillin streptomycin, counted and plated in 96 well flat-bottomed microtiter plates (100 cell suspension, 5×10^4 cells/ml for each cell line). After a 24 h recovery to allow the cells to resume exponential growth, a culture medium (24 control wells per plate) or culture medium containing drug was added to the wells. Each drug concentration was plated in triplicate. […] Fluorescence was measured using an automatic microplate reader (SpectraMax 190, Molecular Devices) at a wavelength of 549 nm, and the number of viable cells was calculated from the optical density.

[4] = system: MES-SA/Dx-5 (doxorubicin-resistant cell line); assay: In vitro cytotoxicity, MTT assay; assay type: cell-based
Procedure: as §2, §3

[5] = rat, in vivo, iv, 5 mg/kg
Procedure: The rats (5 rats for each formulation) were injected intravenously through the tail vein at a dose of 5 mg/kg. The blood samples were collected from the tail vein at 1, 5, 15, 30 minutes and 1, 2, 4, 8, and 24 hours after the drug injection. The blood samples were immediately centrifuged, and the plasma was separated. The plasma samples were stored at −50° C. until analysis. Doxorubicin was analyzed by HPLC assay described in example 1.

SMILES: COc1cccc2c1C(=O)c1c(O)c3c(c(O)c1C2=O)C[C@@](O)(C(=O)CO)C[C@@H]3O[C@H]1C[C@H](N)[C@H](O)[C@H](C)O1.Cl [Free-Dox, doxorubicin hydrochloride]
- Change of (Δ) Fluorescence Intensity ([1]; time 0 hr): 0.0
- Number of cells(%) which absorbed the drug ([1]; time 0 hr): 1.0%
- Change of (Δ) Fluorescence Intensity ([1]; time 1 hr): 7.6
- Number of cells(%) which absorbed the drug ([1]; time 1 hr): 4.0%
- Change of (Δ) Fluorescence Intensity ([1]; time 4 hr): 20.6
- Number of cells(%) which absorbed the drug ([1]; time 4 hr): 11.3%
- Change of (Δ) Fluorescence Intensity ([1]; time 8 hr): 40.6
- Number of cells(%) which absorbed the drug ([1]; time 8 hr): 35.1%
- Change of (Δ) Fluorescence Intensity ([2]; time 0 hr): 0.0
- Number of cells(%) which absorbed the drug ([2]; time 0 hr): 1.0%
- Change of (Δ) Fluorescence Intensity ([2]; time 1 hr): 2.6
- Number of cells(%) which absorbed the drug ([2]; time 1 hr): 1.8%
- Change of (Δ) Fluorescence Intensity ([2]; time 4 hr): 7.1
- Number of cells(%) which absorbed the drug ([2]; time 4 hr): 3.2%
- Change of (Δ) Fluorescence Intensity ([2]; time 8 hr): 9.2
- Number of cells(%) which absorbed the drug ([2]; time 8 hr): 5.3%
- MTT Assay IC50 ([3]; time 24 hr): 0.30 µg/mL
- MTT Assay IC50 ([3]; time 48 hr): 0.087 µg/mL
- MTT Assay IC50 ([3]; time 72 hr): 0.031 µg/mL
- MTT Assay IC50 ([4]; MES-SA/Dx-5, time 24 hr): 54.0 µg/mL
- MTT Assay IC50 ([4]; MES-SA/Dx-5, time 48 hr): 0.92 µg/mL
- MTT Assay IC50 ([4]; MES-SA/Dx-5, time 72 hr): 0.75 µg/mL
- AUC [5]: 1300 ng·h/mL
